Laboratory results published in PMC5218480 (PLoS ONE, 2017).

Tested on: MV-4-11 cells
Test: Gene expression microarray analysis (Affymetrix PrimeView) and GSEA
Assay type: cell-based, human
Set-up: RFU PODN (11730768_x_at) / Fold change /veh PODN (11730768_x_at) / RFU LINC00158 (11744669_a_at) / Fold change /veh LINC00158 (11744669_a_at) / RFU DUSP10 (11751237_a_at) / Fold change /veh DUSP10 (11751237_a_at) / RFU ID3 (11757404_x_at) / Fold change /veh ID3 (11757404_x_at) / RFU PLEKHG5 (11737974_s_at) / Fold change /veh PLEKHG5 (11737974_s_at) / RFU LRRC4B (11730491_at) / Fold change /veh LRRC4B (11730491_at) / RFU GIMAP4 (11747438_a_at) / Fold change /veh GIMAP4 (11747438_a_at) / RFU KRT8 (11758183_x_at) / Fold change /veh KRT8 (11758183_x_at) / RFU CNN1 (11734310_a_at) / Fold change /veh CNN1 (11734310_a_at) / RFU VPS37D (11726825_at) / Fold change /veh VPS37D (11726825_at) / RFU C10orf10 (11716522_x_at) / Fold change /veh C10orf10 (11716522_x_at) / RFU KIR2DL2 /// KIR2DL4 /// KIR2DL5A /// KIR2DL5B /// KIR2DS1 /// KIR2DS2 /// KIR2DS3 /// KIR2DS4 /// KIR3DL3 /// KIR3DL3 /// KIR3DS1 (11738374_at) / Fold change /veh KIR2DL2 /// KIR2DL4 /// KIR2DL5A /// KIR2DL5B /// KIR2DS1 /// KIR2DS2 /// KIR2DS3 /// KIR2DS4 /// KIR3DL3 /// KIR3DL3 /// KIR3DS1 (11738374_at) / RFU C1QL1 (11718748_at) / Fold change /veh C1QL1 (11718748_at) / RFU TMPRSS4 (11747572_a_at) / Fold change /veh TMPRSS4 (11747572_a_at) / RFU HAMP (11756126_x_at) / Fold change /veh HAMP (11756126_x_at) / RFU RNFT2 (11725882_a_at) / Fold change /veh RNFT2 (11725882_a_at) / RFU NR4A2 (11747474_a_at) / Fold change /veh NR4A2 (11747474_a_at) / RFU ABCC12 (11746883_a_at) / Fold change /veh ABCC12 (11746883_a_at) / RFU TMEM136 (11760407_x_at) / Fold change /veh TMEM136 (11760407_x_at) / RFU CLDN22 /// WWC2 (11732394_at) / Fold change /veh CLDN22 /// WWC2 (11732394_at) / RFU HLA-DPB1 (11760878_x_at) / Fold change /veh HLA-DPB1 (11760878_x_at) / RFU SPINT1 (11716480_a_at) / Fold change /veh SPINT1 (11716480_a_at) / RFU GAP43 (11754022_s_at) / Fold change /veh GAP43 (11754022_s_at) / RFU A4GNT (11735810_at) / Fold change /veh A4GNT (11735810_at) / RFU PRB3 (11715151_x_at) / Fold change /veh PRB3 (11715151_x_at) / RFU TUBB4B (11761932_at) / Fold change /veh TUBB4B (11761932_at) / RFU CAPN14 (11732068_a_at) / Fold change /veh CAPN14 (11732068_a_at) / RFU TMCC2 (11721928_a_at) / Fold change /veh TMCC2 (11721928_a_at) / RFU IRGQ (11745062_a_at) / Fold change /veh IRGQ (11745062_a_at) / RFU FAM174B (11720279_a_at) / Fold change /veh FAM174B (11720279_a_at) / RFU TMPRSS4 (11748680_a_at) / Fold change /veh TMPRSS4 (11748680_a_at) / RFU FAM212B (11763350_a_at) / Fold change /veh FAM212B (11763350_a_at) / RFU PLEKHG5 (11743358_a_at) / Fold change /veh PLEKHG5 (11743358_a_at) / RFU ZSCAN30 (11745921_a_at) / Fold change /veh ZSCAN30 (11745921_a_at) / RFU CMKLR1 (11741424_a_at) / Fold change /veh CMKLR1 (11741424_a_at) / RFU LOC101060620 /// MAPK8IP1 (11723275_at) / Fold change /veh LOC101060620 /// MAPK8IP1 (11723275_at) / RFU SPTSSB (11747773_x_at) / Fold change /veh SPTSSB (11747773_x_at) / RFU PRSS12 (11739890_at) / Fold change /veh PRSS12 (11739890_at) / RFU BIN1 (11741810_x_at) / Fold change /veh BIN1 (11741810_x_at) / RFU WNT11 (11732464_a_at) / Fold change /veh WNT11 (11732464_a_at) / RFU C10orf10 (11716521_a_at) / Fold change /veh C10orf10 (11716521_a_at) / RFU C5orf56 (11738089_at) / Fold change /veh C5orf56 (11738089_at) / RFU CYB561 (11721691_x_at) / Fold change /veh CYB561 (11721691_x_at) / RFU ANKRD19P (11752326_a_at) / Fold change /veh ANKRD19P (11752326_a_at) / RFU OR2T12 /// OR2T33 /// OR2T8 (11738714_s_at) / Fold change /veh OR2T12 /// OR2T33 /// OR2T8 (11738714_s_at) / RFU VCAN (11748164_a_at) / Fold change /veh VCAN (11748164_a_at) / RFU JSRP1 (11732532_at) / Fold change /veh JSRP1 (11732532_at) / RFU KRTAP10-11 (11738290_x_at) / Fold change /veh KRTAP10-11 (11738290_x_at) / RFU MYO3A (11730013_a_at) / Fold change /veh MYO3A (11730013_a_at) / RFU EBF3 (11725865_a_at) / Fold change /veh EBF3 (11725865_a_at) / RFU CAMK2N1 (11719241_x_at) / Fold change /veh CAMK2N1 (11719241_x_at) / RFU C5orf56 (11738088_a_at) / Fold change /veh C5orf56 (11738088_a_at) / RFU OLFML3 (11715873_a_at) / Fold change /veh OLFML3 (11715873_a_at) / RFU LOC100653217 /// NTM (11731650_a_at) / Fold change /veh LOC100653217 /// NTM (11731650_a_at) / RFU MAPK11 (11762145_a_at) / Fold change /veh MAPK11 (11762145_a_at) / RFU FIZ1 (11724087_x_at) / Fold change /veh FIZ1 (11724087_x_at) / RFU OASL (11726364_x_at) / Fold change /veh OASL (11726364_x_at) / RFU SOX15 (11748057_x_at) / Fold change /veh SOX15 (11748057_x_at) / RFU CD79A (11719716_a_at) / Fold change /veh CD79A (11719716_a_at) / RFU HIST1H1D (11736915_at) / Fold change /veh HIST1H1D (11736915_at) / RFU CASKIN2 (11723855_a_at) / Fold change /veh CASKIN2 (11723855_a_at) / RFU LOC730098 (11760151_x_at) / Fold change /veh LOC730098 (11760151_x_at) / RFU OR4N2 (11742367_at) / Fold change /veh OR4N2 (11742367_at) / RFU PRRT2 (11749266_a_at) / Fold change /veh PRRT2 (11749266_a_at) / RFU SNX32 (11753110_a_at) / Fold change /veh SNX32 (11753110_a_at) / RFU CDHR5 (11726645_a_at) / Fold change /veh CDHR5 (11726645_a_at) / RFU RCAN1 (11760418_a_at) / Fold change /veh RCAN1 (11760418_a_at) / RFU FAM167A (11723789_a_at) / Fold change /veh FAM167A (11723789_a_at) / RFU FAM26E (11764081_at) / Fold change /veh FAM26E (11764081_at) / RFU ISYNA1 (11749810_s_at) / Fold change /veh ISYNA1 (11749810_s_at) / RFU ACY1 (11761880_at) / Fold change /veh ACY1 (11761880_at) / RFU 11764098_at / Fold change /veh 11764098_at / RFU SAMD14 (11745864_x_at) / Fold change /veh SAMD14 (11745864_x_at) / RFU NPB (11741838_a_at) / Fold change /veh NPB (11741838_a_at) / RFU TMPRSS6 (11731388_a_at) / Fold change /veh TMPRSS6 (11731388_a_at) / RFU KRTAP10-2 (11738614_at) / Fold change /veh KRTAP10-2 (11738614_at) / RFU ARHGAP8 /// PRR5-ARHGAP8 (11727945_x_at) / Fold change /veh ARHGAP8 /// PRR5-ARHGAP8 (11727945_x_at) / RFU KRTAP5-7 /// NADSYN1 (11734609_at) / Fold change /veh KRTAP5-7 /// NADSYN1 (11734609_at) / RFU RASL12 (11751679_a_at) / Fold change /veh RASL12 (11751679_a_at) / RFU CDKN2B (11736163_a_at) / Fold change /veh CDKN2B (11736163_a_at) / RFU PRF1 (11729649_at) / Fold change /veh PRF1 (11729649_at) / RFU, ZNF638 /// ZNF638-IT1 / Fold change vs veh, ZNF638 /// ZNF638-IT1 / RFU, PANK3 / Fold change vs veh, PANK3 / RFU, SH3YL1 / Fold change vs veh, SH3YL1 / RFU, ZEB2 / Fold change vs veh, ZEB2 / RFU, NRIP1 / Fold change vs veh, NRIP1 / RFU, PTTG1IP / Fold change vs veh, PTTG1IP / RFU, CAPN2 / Fold change vs veh, CAPN2 / RFU, MED14 / Fold change vs veh, MED14 / RFU, SNORA58 / Fold change vs veh, SNORA58 / RFU, C1orf63 / Fold change vs veh, C1orf63 / RFU, LRRFIP1 / Fold change vs veh, LRRFIP1 / RFU, NDUFAF7 / Fold change vs veh, NDUFAF7 / RFU, SLC12A2 / Fold change vs veh, SLC12A2 / RFU, IBTK / Fold change vs veh, IBTK / RFU, ESF1 / Fold change vs veh, ESF1 / Fold change vs veh, TMEM50B / RFU, TAOK1 / Fold change vs veh, TAOK1 / RFU, ACBD3 / Fold change vs veh, ACBD3 / RFU, TMA16 / Fold change vs veh, TMA16 / RFU, RWDD3 / Fold change vs veh, RWDD3 / RFU, BCAT1 / Fold change vs veh, BCAT1 / RFU, EDEM3 / Fold change vs veh, EDEM3 / RFU, TMEM33 / Fold change vs veh, TMEM33 / RFU, WDR75 / Fold change vs veh, WDR75 / RFU, AHCTF1 / Fold change vs veh, AHCTF1 / RFU, TFRC / Fold change vs veh, TFRC / RFU, ZDHHC17 / Fold change vs veh, ZDHHC17 / RFU, NOM1 / Fold change vs veh, NOM1 / RFU, ARL8B / Fold change vs veh, ARL8B / RFU, ZBTB11 / Fold change vs veh, ZBTB11 / RFU, TAMM41 / Fold change vs veh, TAMM41 / RFU, KIAA1704 /// LOC100996395 / Fold change vs veh, KIAA1704 /// LOC100996395 / RFU, ING1 / Fold change vs veh, ING1 / RFU, TRMT61B / Fold change vs veh, TRMT61B / RFU, FUBP3 / Fold change vs veh, FUBP3 / RFU, TP53 / Fold change vs veh, TP53 / RFU, TNKS2 / Fold change vs veh, TNKS2 / RFU, ZFP14 / Fold change vs veh, ZFP14 / RFU, ACTR2 / Fold change vs veh, ACTR2 / RFU, PPP3R1 / Fold change vs veh, PPP3R1 / RFU, PIK3R1 / Fold change vs veh, PIK3R1 / RFU, HNRNPA1 / Fold change vs veh, HNRNPA1 / RFU, RNF170 / Fold change vs veh, RNF170 / RFU, ZNF28 / Fold change vs veh, ZNF28 / RFU, RNGTT / Fold change vs veh, RNGTT / RFU, OGT / Fold change vs veh, OGT / RFU, BRD1 / Fold change vs veh, BRD1 / RFU, MARS / Fold change vs veh, MARS / RFU, ZNF655 / Fold change vs veh, ZNF655 / RFU, FAHD1 / Fold change vs veh, FAHD1 / RFU, BDP1 / Fold change vs veh, BDP1 / RFU, LRRCC1 / Fold change vs veh, LRRCC1 / RFU, ARID1A / Fold change vs veh, ARID1A / RFU, ZNF146 / Fold change vs veh, ZNF146 / RFU, ZNF330 / Fold change vs veh, ZNF330 / RFU, GPN3 / Fold change vs veh, GPN3 / RFU, C9orf123 / Fold change vs veh, C9orf123 / RFU, N4BP2L2 / Fold change vs veh, N4BP2L2 / RFU, ARFIP1 / Fold change vs veh, ARFIP1 / RFU, FAM179B / Fold change vs veh, FAM179B / RFU, BCL10 / Fold change vs veh, BCL10 / RFU, UHRF1BP1L / Fold change vs veh, UHRF1BP1L / RFU, BET1 / Fold change vs veh, BET1 / RFU, CNOT2 / Fold change vs veh, CNOT2 / RFU, ZNF268 / Fold change vs veh, ZNF268 / Fold change vs veh, ZNF507 / RFU, DGCR2 / Fold change vs veh, DGCR2 / RFU, WDSUB1 / Fold change vs veh, WDSUB1 / Fold change vs veh, HSP90B1 /// MIR3652 / RFU, ADSS / Fold change vs veh, ADSS / RFU, GK / Fold change vs veh, GK / RFU, ZNF148 / Fold change vs veh, ZNF148 / RFU, TAF9 / Fold change vs veh, TAF9 / RFU, SLC1A5 / Fold change vs veh, SLC1A5 / RFU, SLMO2 / Fold change vs veh, SLMO2 / RFU, ABCC4 / Fold change vs veh, ABCC4 / RFU, LOC101060439 /// RAP1B / Fold change vs veh, LOC101060439 /// RAP1B / RFU, RFX7 / Fold change vs veh, RFX7 / RFU, GTPBP10 / Fold change vs veh, GTPBP10 / RFU, CNEP1R1 / Fold change vs veh, CNEP1R1 / RFU, BIVM-ERCC5 /// ERCC5 / Fold change vs veh, BIVM-ERCC5 /// ERCC5 / RFU, ILF3 / Fold change vs veh, ILF3 / RFU 11762660_at / Fold change /veh 11762660_at / RFU VCAN (11757783_s_at) / Fold change /veh VCAN (11757783_s_at) / RFU DDX43 (11728927_at) / Fold change /veh DDX43 (11728927_at) / RFU KRT8 (11758188_x_at) / Fold change /veh KRT8 (11758188_x_at) / RFU NKD1 (11759106_at) / Fold change /veh NKD1 (11759106_at) / RFU SRD5A1 (11742802_a_at) / Fold change /veh SRD5A1 (11742802_a_at) / RFU TPSAB1 /// TPSB2 (11721975_s_at) / Fold change /veh TPSAB1 /// TPSB2 (11721975_s_at) / RFU GSTM3 (11746129_a_at) / Fold change /veh GSTM3 (11746129_a_at) / RFU IL23R (11737362_x_at) / Fold change /veh IL23R (11737362_x_at) / RFU TMEM51 (11727254_a_at) / Fold change /veh TMEM51 (11727254_a_at) / RFU PIWIL2 (11732686_x_at) / Fold change /veh PIWIL2 (11732686_x_at) / RFU ORM1 (11744905_x_at) / Fold change /veh ORM1 (11744905_x_at) / RFU CCDC152 (11743942_at) / Fold change /veh CCDC152 (11743942_at) / RFU ECM1 (11717891_a_at) / Fold change /veh ECM1 (11717891_a_at) / RFU IL23R (11748794_a_at) / Fold change /veh IL23R (11748794_a_at) / RFU TNFAIP8L3 (11732012_x_at) / Fold change /veh TNFAIP8L3 (11732012_x_at) / RFU MBOAT4 (11741988_at) / Fold change /veh MBOAT4 (11741988_at) / RFU 11764193_at / Fold change /veh 11764193_at / RFU TMEM53 (11763286_at) / Fold change /veh TMEM53 (11763286_at) / RFU MAGEB2 (11727129_at) / Fold change /veh MAGEB2 (11727129_at) / RFU TMEM200A (11744735_a_at) / Fold change /veh TMEM200A (11744735_a_at) / RFU CCDC152 (11751479_a_at) / Fold change /veh CCDC152 (11751479_a_at) / RFU FAM211A (11726209_a_at) / Fold change /veh FAM211A (11726209_a_at) / RFU RGS16 (11746705_a_at) / Fold change /veh RGS16 (11746705_a_at) / RFU VCAN (11755009_s_at) / Fold change /veh VCAN (11755009_s_at) / RFU RHOB (11743442_s_at) / Fold change /veh RHOB (11743442_s_at) / RFU RGS16 (11720943_a_at) / Fold change /veh RGS16 (11720943_a_at) / RFU RGS16 (11720944_at) / Fold change /veh RGS16 (11720944_at) / RFU, VPS4B / Fold change vs veh, VPS4B / RFU, CREB1 / Fold change vs veh, CREB1 / RFU, DNAJC13 / Fold change vs veh, DNAJC13 / RFU, GNAQ / Fold change vs veh, GNAQ / RFU, CDK5R1 / Fold change vs veh, CDK5R1 / RFU, ZRANB3 / Fold change vs veh, ZRANB3 / RFU, CUL4A / Fold change vs veh, CUL4A / RFU, CCNY / Fold change vs veh, CCNY / RFU, UFL1 / Fold change vs veh, UFL1 / RFU, COG3 / Fold change vs veh, COG3 / RFU, DIAPH2 / Fold change vs veh, DIAPH2 / RFU, SKA2 / Fold change vs veh, SKA2 / RFU, AFF3 / Fold change vs veh, AFF3 / RFU, LMF1 / Fold change vs veh, LMF1 / RFU, IPO11 / Fold change vs veh, IPO11 / RFU, DFFB / Fold change vs veh, DFFB / RFU, FOXP1 / Fold change vs veh, FOXP1 / RFU, CARD8 / Fold change vs veh, CARD8 / RFU, STRN3 / Fold change vs veh, STRN3 / RFU, ADK / Fold change vs veh, ADK / RFU, RASSF2 / Fold change vs veh, RASSF2 / RFU, WIPF1 / Fold change vs veh, WIPF1 / RFU, LARP1B / Fold change vs veh, LARP1B / RFU, RASA1 / Fold change vs veh, RASA1 / RFU, RB1 / Fold change vs veh, RB1 / RFU, PPFIA1 / Fold change vs veh, PPFIA1 / RFU, MAT2A / Fold change vs veh, MAT2A / RFU, CCT5 / Fold change vs veh, CCT5 / RFU, WDR92 / Fold change vs veh, WDR92 / RFU, CUX1 / Fold change vs veh, CUX1 / RFU, TTC7A / Fold change vs veh, TTC7A / RFU, TMEM135 / Fold change vs veh, TMEM135 / RFU, DEPTOR / Fold change vs veh, DEPTOR / RFU, CPM / Fold change vs veh, CPM / RFU, DNAJB6 / Fold change vs veh, DNAJB6 / RFU, CACNA2D3 / Fold change vs veh, CACNA2D3 / RFU, DTX4 / Fold change vs veh, DTX4 / RFU, TFCP2 / Fold change vs veh, TFCP2 / RFU, GMCL1 /// GMCL1P1 / Fold change vs veh, GMCL1 /// GMCL1P1 / RFU, AEBP2 / Fold change vs veh, AEBP2 / RFU, SNHG1 /// SNORD22 /// SNORD25 /// SNORD26 /// SNORD27 /// SNORD28 /// SNORD29 /// SNORD31 / Fold change vs veh, SNHG1 /// SNORD22 /// SNORD25 /// SNORD26 /// SNORD27 /// SNORD28 /// SNORD29 /// SNORD31 / Fold change (Aza/veh), C12orf56 (ProbeSet 11735607_a_at) / Fold change (ACY-1035/veh), C12orf56 (ProbeSet 11735607_a_at) / Fold change (Aza/veh), FGFR1OP (ProbeSet 11751329_s_at) / Fold change (ACY-1035/veh), FGFR1OP (ProbeSet 11751329_s_at) / Fold change (Aza/veh), VPS36 (ProbeSet 11739960_a_at) / Fold change (ACY-1035/veh), VPS36 (ProbeSet 11739960_a_at) / RFU SYPL1 (11715823_x_at) / Fold change /veh SYPL1 (11715823_x_at) / RFU IGFBP7 (11715501_s_at) / Fold change /veh IGFBP7 (11715501_s_at) / RFU REEP3 (11722064_at) / Fold change /veh REEP3 (11722064_at) / RFU IGLL1 (11728026_x_at) / Fold change /veh IGLL1 (11728026_x_at): dose or concentration left out as unconfirmed
Conditions: MV-4-11 cells, 48 hours

Q: How did the “RFU 11764098_at” value turn out when `Nc1ncn([C@@H]2O[C@H](CO)[C@@H](O)[C@H]2O)c(=O)n1` [azacitidine] was run?
A: 18.12 RFU
